In paper PMC8804135 (Neurotherapeutics, 2021):
Numbered stars: 1 amine (or outer) side, 2 acyl side, 3 side chain; on linkers, the order of the positions; unused ones are H or OH. Bridge positions count the residues as written; N and C are the ends. Square brackets hold non-standard residues; d marks the D form. Ends that are not written are not given here. Peptide text beside a SMILES is read from it. dAbu(3S-yl) = C[C@@H]([C@@H](N[*:1])C(=O)[*:2])[*:3]; pGlu = O=C1CC[C@@H](C(=O)O)N1

How the values were obtained:
Type in all cases: cell-based
[1] = target: T1, GAL2R (Homo sapiens, UniProt O43603); test: PathHunter eXpress β-arrestin recruitment assay, GAL2R; design: expressed in transfected cells; settings: Table 3; CHO-K1 cells co-expressing GAL2R and β-arrestin 2; 10 µM to 5 nM; (average) ratio, (n) in cell = number of assays; NA = ratio above 1000
T1 sequence (O43603 1-387): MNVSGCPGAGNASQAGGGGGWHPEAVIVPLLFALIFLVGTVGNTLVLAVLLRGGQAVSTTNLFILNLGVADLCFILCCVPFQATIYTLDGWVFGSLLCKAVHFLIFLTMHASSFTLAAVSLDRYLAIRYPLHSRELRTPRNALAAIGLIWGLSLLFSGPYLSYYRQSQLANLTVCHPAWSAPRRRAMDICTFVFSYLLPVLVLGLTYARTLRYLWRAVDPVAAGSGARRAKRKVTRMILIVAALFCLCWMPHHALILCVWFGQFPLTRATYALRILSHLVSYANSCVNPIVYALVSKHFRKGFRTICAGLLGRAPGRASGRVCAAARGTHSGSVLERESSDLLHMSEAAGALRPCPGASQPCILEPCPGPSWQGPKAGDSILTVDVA
Description: (§1) To evaluate the ability of lanthipeptides to recruit ß-arrestins via GAL1R or via GAL2R, we used the PathHunter® eXpress GAL1R, CHO-K1, β-arrestin GPCR Assay and the PathHunter® eXpress GAL2R, CHO-K1, β-arrestin, GPCR Assay from Eurofins-DiscoverX. The assays were performed according to the manufacturer’s instructions. Briefly, for one assay, CHO-K1 cells co-expressing GAL1R or GAL2R and β-arrestin (isoform 2) were diluted in AssayComplete™ Cell Plating Reagent, and 100 µl was seeded into each well of a 96-well plate. The plate was incubated at 37 °C, 5% CO2 in a humidified incubator. A serial 3 × dilution of the lanthipeptides in water was made (10 µM to 5 nM). After 48 h of incubation, 10 µl of the serial dilutions was applied to the cells in duplicate. The agonists were incubated for 90 min at 37 °C. Next, 55 µL of Working Detection Solution was added, and after 1 h of incubation at room temperature in the dark, the chemiluminescent signal was read with a Synergy HT Biotek reader.

[2] = target: T1, GAL2R; test: Fluo-4 Direct calcium assay (Ca efflux) in HEK293 cells overexpressing GAL2R; settings: Table 3; HEK293 cells stably overexpressing GAL2R; Fluo-4, from 10 µM; (average) ratio, (n) in cell = number of assays; NA = ratio above 1000
Description: Calcium efflux was measured by using a Fluo-4 Direct Calcium Assay purchased from Thermo Fisher Scientific. HEK293 cells with stable overexpression of GAL2R (HEKR2) (kindly provided by Harald Dargatz, Molecular, Cellular and Pharmacobiology Section, Institute of Pharmaceutical Biology, University of Bonn, 53,115 Bonn, Germany) were used for analysis of the lanthipeptides. HEKR2 cells were seeded in a 96-well plate and grown overnight in DMEM supplemented with 10% FBS, 1% penicillin–streptomycin, 100 µg/ml Normocin, and 500 µg/ml G418 at 37 °C, 5% CO2 in a humidified incubator.
The next day, when the cells were nearly confluent, an equal amount of 2 × Fluo-4 Direct™ calcium reagent loading solution, containing 5 mM probenecid, was added to the wells, and the plate was incubated for 1 h at 37 °C. A serial 3 × dilution of the agonist compound in water was made, and 10 µl of the serial dilutions was applied to the cells in duplicate. The starting concentration of agonist in the assay was 10 µM. After 1–2 h of incubation at room temperature, the fluorescence was measured with excitation at 485/20 nm and emission at 528/20 nm with a Synergy HT Biotek reader.

[3] = target: T2, GAL1R (Homo sapiens, UniProt P47211); test: cAMP Hunter eXpress GAL1R CHO-K1 GPCR assay (inhibition of forskolin-induced cAMP); design: expressed in transfected cells; settings: Table 3; CHO-K1 cells expressing GAL1R; 20 µM forskolin; 10 µM to 5 nM; (average) ratio, (n) in cell = number of assays; NA = ratio above 1000
T2 sequence (P47211 1-349): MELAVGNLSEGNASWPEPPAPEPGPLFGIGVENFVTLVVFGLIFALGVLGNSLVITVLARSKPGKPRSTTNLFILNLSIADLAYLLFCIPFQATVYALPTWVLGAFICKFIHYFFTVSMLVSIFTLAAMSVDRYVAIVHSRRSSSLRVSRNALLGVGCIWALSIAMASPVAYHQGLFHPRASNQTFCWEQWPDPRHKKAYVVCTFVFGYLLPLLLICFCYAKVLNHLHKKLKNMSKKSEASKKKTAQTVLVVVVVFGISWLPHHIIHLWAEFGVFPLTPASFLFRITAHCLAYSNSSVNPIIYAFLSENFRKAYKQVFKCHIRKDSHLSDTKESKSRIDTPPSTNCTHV
Description: To evaluate the ability of lanthipeptides to […] via GAL1R signaling, we used the cAMP Hunter™ eXpress GAL1R CHO-K1 GPCR Assay from Eurofins-DiscoverX. The assay was performed according to the manufacturer’s instructions. Briefly, for one assay, CHO-K1 cells expressing GAL1R were diluted in AssayComplete™ Cell Plating 2 Reagent, and 100 µl was seeded into each well of a 96-well plate. The plate was incubated at 37 °C, 5% CO2 in a humidified incubator. After 24 h of incubation, the media was aspirated, and 45 µl cell assay buffer/antibody mixture was added to all wells. […] Fifteen µl of the serial dilutions was applied in duplicates to the cells. The concentration of forskolin in the assay was 20 µM. The agonists were incubated for 30 min at 37 °C. Next, 15 µL Antibody Solution and 60 μL cAMP Working Detection Solution were added, and the plate was incubated for 1 h in the dark at room temperature. Finally, 60 μL cAMP Solution A was added and, after 3 h of incubation in the dark at room temperature, the chemiluminescent signal was read with a Synergy HT Biotek reader.

[4] = target: T2, GAL1R; test: PathHunter eXpress β-arrestin recruitment assay, GAL1R; design: expressed in transfected cells; settings: Table 3; CHO-K1 cells co-expressing GAL1R and β-arrestin 2; 10 µM to 5 nM; (average) ratio, (n) in cell = number of assays; NA = ratio above 1000
Description: as §1

| EC50 ratios to Gal-(1-15), GAL2R ß-Arrestin [1] | EC50 ratios to Gal-(1-15), GAL2R Ca-efflux [2] | EC50 ratios to Gal-(1-15), GAL1R cAMP [3] | EC50 ratios to Gal-(1-15), GAL1R ß-Arrestin [4] | Molecule |
| --- | --- | --- | --- | --- |
| 1.2 (3) | 3.3 (3) | 140 (2) | 4.5 (2) | CC(C)C[C@H](NC(=O)[C@H](CC(C)C)NC(=O)[C@H](Cc1ccc(O)cc1)NC(=O)CNC(=O)[C@H](C)NC(=O)[C@H](C)NC(=O)[C@H](CC(N)=O)NC(=O)[C@H](CC(C)C)NC(=O)[C@H](CC(N)=O)NC(=O)[C@H](Cc1c[nH]c2ccccc12)NC(=O)[C@@H]1CCC(=O)N1)C(=O)NCC(=O)N[C@@H](C)C(=O)N[C@H]1C(=O)N[C@@H](C)C(=O)N[C@@H](C(C)C)C(=O)N[C@H](C(=O)N[C@@H](CC(N)=O)C(=O)N[C@@H](Cc2c[nH]cn2)C(=O)N[C@@H](CCCNC(=N)N)C(=O)O)CS[C@H]1C [Variant M54] ([pGlu]WNLNAAGYLLGA[dAbu(3S-yl)]AVCNHR-OH; thioether 14-17; C-terminus assumed) |
| 4.2 (1) | 2.6 (3) | 13.3 (1) | 129 (1) | CC(C)C[C@H](NC(=O)[C@H](CC(C)C)NC(=O)[C@H](Cc1ccc(O)cc1)NC(=O)CNC(=O)[C@H](C)NC(=O)[C@H](C)NC(=O)[C@H](CC(N)=O)NC(=O)[C@H](CC(C)C)NC(=O)[C@H](CC(N)=O)NC(=O)[C@H](Cc1c[nH]c2ccccc12)NC(=O)[C@@H]1CCC(=O)N1)C(=O)NCC(=O)N1CCC[C@H]1C(=O)N[C@@H](Cc1c[nH]cn1)C(=O)N[C@@H](C)C(=O)N[C@H]1C(=O)NCC(=O)N[C@@H](CC(N)=O)C(=O)N[C@H](C(=O)N[C@@H](CCCNC(=N)N)C(=O)O)CS[C@H]1C [Variant M74b] ([pGlu]WNLNAAGYLLGPHA[dAbu(3S-yl)]GNCR-OH; thioether 16-19; C-terminus assumed) |
| 0.5 (1) | 3.5 (2) | 12.5 (1) | 3.8 (1) | GWNLNAAGYLLATHACGNHR (also: sidechain bridge or staple (positions not given here)) [Variant M50, methyllanthionine-containing galanin variant produced in L. lactis] |
| 3.2 (1) | 4.6 (1) | 4.9 (1) | 2.7 (1) | GWNLNAAGYLLGATAVC (also: sidechain bridge or staple (positions not given here)) [Variant M90, methyllanthionine-containing galanin variant produced in L. lactis] |
| 0.6 (2) | 2.9 (2) | 3.6 (1) | 1.5 (2) | GWNLNAAGYLLGATAVCNHR (also: sidechain bridge or staple (positions not given here)) [Variant M51, methyllanthionine-containing galanin variant produced in L. lactis] |
| 1.0 (1) | 0.9 (1) | 0.6 (1) | 1.0 (1) | GWNLNAAGYLLGATAVGCHR (also: sidechain bridge or staple (positions not given here)) [Variant M76, methyllanthionine-containing galanin variant produced in L. lactis] |
| 2.6 (1) | 4.7 (1) | 4.6 (1) | 2.3 (1) | GWNLNAAGYLLGPHATGNCR (also: sidechain bridge or staple (positions not given here)) [Variant M74, methyllanthionine-containing galanin variant produced in L. lactis] |
| 0.6 (1) | 1.9 (1) | 7.5 (2) | 8.3 (1) | GWNLNAAGYLLGPHTVGCHR (also: sidechain bridge or staple (positions not given here)) [Variant M52, methyllanthionine-containing galanin variant produced in L. lactis] |

| Molecule | EC50 ratios to Gal-(1-15), GAL2R ß-Arrestin [1] | EC50 ratios to Gal-(1-15), GAL2R Ca-efflux [2] | EC50 ratios to Gal-(1-15), GAL1R cAMP [3] | EC50 ratios to Gal-(1-15), GAL1R ß-Arrestin [4] |
| --- | --- | --- | --- | --- |
| GWNLNAAGYLLATHACG (also: sidechain bridge or staple (positions not given here)) [Variant M89, methyllanthionine-containing galanin variant produced in L. lactis] | 3 (1) | 2.7 (1) | NA (1) (NA is not active; ratios above 1000 were considered to be not active) | 148 (1) |
| GWNLNAAGYLLGTHACG (also: sidechain bridge or staple (positions not given here)) [Variant M84, methyllanthionine-containing galanin variant produced in L. lactis] | NA (1) (NA is not active; ratios above 1000 were considered to be not active) | 6.3 (1) | – | 35 (1) |
| GWNLNAATYLCGPHAVGNHR (also: sidechain bridge or staple (positions not given here)) [Variant M60, methyllanthionine-containing galanin variant produced in L. lactis] | NA (1) (NA is not active; ratios above 1000 were considered to be not active) | 8.7 (1) | NA (2) (NA is not active; ratios above 1000 were considered to be not active) | – |
